Assay results from patent publication US3966701A, “Fibrinogen peptide derivatives” (The Dow Chemical Company, priority 1973, dated 1976).
Where a SMILES comes first, the peptide text is derived from it. The star is where a group is joined. Boc = CC(C)(C)OC(=O)*; OBn = c1ccc(CO*)cc1

Columns and labels:
thrombin [1] = assay: in vitro thrombin time (TT): exogenous thrombin added to oxalated plasma, clotting time measured; assay type: biochemical; conditions: oxalated dog plasma, thrombin 1 unit/ml, control 15 sec
Protocol: Their anticoagulant activity was determined by measuring thrombin time (TT) utilizing an in vitro test wherein exogenous thrombin is added to oxalated plasma and clotting time is measured in the presence of the test compound.
^a Clotting mixture: 0.2 ml. oxalated dog plasma, 0.1 ml. barbital
buffer containing peptide and 0.1 ml. thrombin (1 unit/ml.)

thrombin [2] = assay: in vitro plasma recalcification time (PRT): calcium ions added to oxalated plasma, clotting time measured; assay type: biochemical, dog
Protocol: The plasma recalcification time (PRT) was also used in an in vitro test for measuring thrombin inhibition wherein exogenous calcium ions were added to oxalated plasma (the system makes its thrombin in situ), and measuring clotting time in the presence of the compounds.
0.2 ml. oxalated dog plasma
0.1 ml. Barbital buffer saline containing test compound
0.1 ml. oxalated dog plasma
0.2 ml. Barbital buffer saline containing test compound

[3] = 0.25 mg/ml, clotting mixture (a), 0.2 ml oxalated dog plasma, control 66 sec
[4] = 0.5 mg/ml, clotting mixture (a), 0.2 ml oxalated dog plasma, control 66 sec
[5] = 1.0 mg/ml, clotting mixture (a), 0.2 ml oxalated dog plasma, control 66 sec
[6] = 1.5 mg/ml, clotting mixture (a), 0.2 ml oxalated dog plasma, control 66 sec

Compound | Thrombin Times (sec) at Peptide Concentrations (mg/ml) (thrombin [1]; 0.125 mg/ml peptide) [s] | Thrombin Times (sec) at Peptide Concentrations (mg/ml) (thrombin [1]; 0.25 mg/ml peptide) [s] | Thrombin Times (sec) at Peptide Concentrations (mg/ml) (thrombin [1]; 0.5 mg/ml peptide) [s] | Thrombin Times (sec) at Peptide Concentrations (mg/ml) (thrombin [1]; 1.0 mg/ml peptide) [s] | Thrombin Times (sec) at Peptide Concentrations (mg/ml) (thrombin [1]; 2.0 mg/ml peptide) [s] | PRT (average) (thrombin [2]; [3]) [s] | PRT (average) (thrombin [2]; [4]) [s] | PRT (average) (thrombin [2]; [5]) [s] | PRT (average) (thrombin [2]; [6]) [s] | PRT (average) (thrombin [2]; 2 mg/ml, clotting mixture (a), 0.2 ml oxalated dog plasma, control 66 sec) [s] | PRT (average) (thrombin [2]; 0.25 mg/ml, clotting mixture (a), 0.2 ml oxalated dog plasma, control 55 sec) [s] | PRT (average) (thrombin [2]; 0.5 mg/ml, clotting mixture (a), 0.2 ml oxalated dog plasma, control 55 sec) [s] | PRT (average) (thrombin [2]; 1.0 mg/ml, clotting mixture (a), 0.2 ml oxalated dog plasma, control 55 sec) [s] | PRT (average) (thrombin [2]; 1.5 mg/ml, clotting mixture (a), 0.2 ml oxalated dog plasma, control 55 sec) [s] | PRT (average) (thrombin [2]; 2 mg/ml, clotting mixture (a), 0.2 ml oxalated dog plasma, control 55 sec) [s] | PRT (average) (thrombin [2]; 0.25 mg/ml, clotting mixture (b), 0.1 ml oxalated dog plasma, control 115 sec) [s] | PRT (average) (thrombin [2]; 0.5 mg/ml, clotting mixture (b), 0.1 ml oxalated dog plasma, control 115 sec) [s] | PRT (average) (thrombin [2]; 1.0 mg/ml, clotting mixture (b), 0.1 ml oxalated dog plasma, control 115 sec) [s] | PRT (average) (thrombin [2]; 2 mg/ml, clotting mixture (b), 0.1 ml oxalated dog plasma, control 115 sec) [s]
L-Prolyl-L-arginine Benzyl Ester p-Toluenesulfonate Trifluoroacetate [Example 2] | 19 | 23 | 31 | 46 | 69 | 89 | 102 | 134 | 209 | – | – | – | – | – | – | – | – | – | –
CC(C)(C)OC(=O)NCC(=O)N1CCC[C@H]1C(=O)N[C@@H](CCCNC(=N)N)C(=O)OCc1ccccc1.Cc1ccc(S(=O)(=O)O)cc1 [Example 3, N-t-Butyloxycarbonylglycyl-L-prolyl-L-arginine Benzyl Ester p-Toluenesulfonate] (Boc-Gly-Pro-Arg-OBn) | 23 | 29 | 42 | 56 | 75 | 88 | 110 | 146 | 202 | – | – | – | – | – | – | – | – | – | –
CC(C)(C)OC(=O)N1CCC[C@H]1C(=O)N[C@@H](CCCNC(=N)N)C(=O)OCc1ccccc1.CO.Cc1ccc(S(=O)(=O)O)cc1 [Example 1, N-t-Butyloxycarbonyl-L-prolyl-L-arginine Benzyl Ester p-Toluenesulfonate Methanolate] (Boc-Pro-Arg-OBn) | 40 | 44 | 73 | 91 | 159 | 128 | 160 | 207 | 229 | 250 | – | – | – | – | – | – | – | – | –
Glycyl-L-Prolyl-L-Arginine Benzyl Ester p-Toluenesulfonate Trifluoroacetate [Example 4] | 19 | 26 | 44 | 68 | 135 | – | – | – | – | – | 77 | 100 | 198 | 246 | 296 | – | – | – | –
N-Benzyloxycarbonyl-L-prolyl-L-arginine Benzyl Ester p-Toluenesulfonate Methanolate [Example 5] | – | – | – | – | – | – | – | – | – | – | – | – | – | – | – | 240 | 270 | 345 | 435
